# In PubChem BioAssay (NCI):
#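 Tested at 5 concentrations; 48 h exposure; 96-well plates; endpoints linearly interpolated, else capped at highest concentration. At the TGI there is no net growth.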
# Assays:
# Assay in all cases: NCI tumour cell line growth inhibition, 48 h
# [1] = test system: 786-0 renal
# [2] = test system: A498 renal
# [3] = test system: A549 NSCLC
# [4] = test system: ACHN renal
# [5] = test system: BT-549 breast
# [6] = test system: CAKI-1 renal
# [7] = test system: COLO 205 colon
# [8] = test system: DU-145 prostate
# [9] = test system: EKVX NSCLC
# [10] = test system: HCC-2998 colon
# [11] = test system: HCT-116 colon
# [12] = test system: HCT-15 colon
# [13] = test system: HL-60(TB) leukemia
# [14] = test system: HOP-62 NSCLC
# [15] = test system: HOP-92 NSCLC
# [16] = test system: HS 578T breast
# [17] = test system: HT29 colon
# [18] = test system: IGROV1 ovarian
# [19] = test system: K-562 leukemia
# [20] = test system: KM12 colon
# [21] = test system: LOX IMVI melanoma
# [22] = test system: M14 melanoma
# [23] = test system: MALME-3M melanoma
# [24] = test system: MCF7 breast
# [25] = test system: MDA-MB-231 breast
# [26] = test system: MDA-MB-435
# [27] = test system: MDA-N
# [28] = test system: MOLT-4 leukemia
# [29] = test system: NCI-H226 lung
# [30] = test system: NCI-H23 lung
# [31] = test system: NCI-H460 lung
# [32] = test system: NCI-H522 lung
# [33] = test system: NCI/ADR-RES ovarian
# [34] = test system: OVCAR-3 ovarian
# [35] = test system: OVCAR-4 ovarian
# [36] = test system: OVCAR-5 ovarian
# [37] = test system: OVCAR-8 ovarian
# [38] = test system: PC-3 prostate
# [39] = test system: RPMI-8226 leukemia
# [40] = test system: RXF 393 renal
# [41] = test system: SF-268 CNS
# [42] = test system: SF-295 CNS
# [43] = test system: SF-539 CNS
# [44] = test system: SK-MEL-2 melanoma
# [45] = test system: SK-MEL-28 melanoma
# [46] = test system: SK-MEL-5 melanoma
# [47] = test system: SK-OV-3 ovarian
# [48] = test system: SN12C renal
# [49] = test system: SNB-19 CNS
# [50] = test system: SNB-75 CNS
# [51] = test system: SR leukemia
# [52] = test system: SW-620 colon
# [53] = test system: T-47D breast
# [54] = test system: TK-10 renal
# [55] = test system: U251 CNS
# [56] = test system: UACC-257 melanoma
# [57] = test system: UACC-62 melanoma
# [58] = test system: UO-31 renal
structure (smiles),measurement,setting,value
Cc1ccccc1OC(C)C(=O)NN1C(=O)CC(=O)NC1=S (stereo not given),TGI,[1],> 100 µM
same,TGI,[2],> 100 µM
same,TGI,[3],> 100 µM
same,TGI,[4],> 100 µM
same,TGI,[5],> 100 µM
same,TGI,[6],> 100 µM
same,TGI,[7],> 100 µM
same,TGI,[8],> 100 µM
same,TGI,[9],> 100 µM
same,TGI,[10],> 100 µM
same,TGI,[11],> 100 µM
same,TGI,[12],> 100 µM
same,TGI,[13],> 100 µM
same,TGI,[14],> 100 µM
same,TGI,[15],> 100 µM
same,TGI,[16],> 100 µM
same,TGI,[17],> 100 µM
same,TGI,[18],> 100 µM
same,TGI,[19],> 100 µM
same,TGI,[20],> 100 µM
same,TGI,[21],> 100 µM
same,TGI,[22],> 100 µM
same,TGI,[23],> 100 µM
same,TGI,[24],> 100 µM
same,TGI,[25],> 100 µM
same,TGI,[26],> 100 µM
same,TGI,[27],> 100 µM
same,TGI,[28],> 100 µM
same,TGI,[29],> 100 µM
same,TGI,[30],> 100 µM
same,TGI,[31],> 100 µM
same,TGI,[32],> 100 µM
same,TGI,[33],> 100 µM
same,TGI,[34],> 100 µM
same,TGI,[35],> 100 µM
same,TGI,[36],> 100 µM
same,TGI,[37],> 100 µM
same,TGI,[38],> 100 µM
same,TGI,[39],> 100 µM
same,TGI,[40],> 100 µM
same,TGI,[41],> 100 µM
same,TGI,[42],> 100 µM
same,TGI,[43],> 100 µM
same,TGI,[44],> 100 µM
same,TGI,[45],> 100 µM
same,TGI,[46],> 100 µM
same,TGI,[47],> 100 µM
same,TGI,[48],> 100 µM
same,TGI,[49],> 100 µM
same,TGI,[50],> 100 µM
same,TGI,[51],> 100 µM
same,TGI,[52],> 100 µM
same,TGI,[53],> 100 µM
same,TGI,[54],> 100 µM
same,TGI,[55],> 100 µM
same,TGI,[56],> 100 µM
same,TGI,[57],> 100 µM
same,TGI,[58],> 100 µM
c1ccc2c(c1)c1c(n2CCOCCCN2CCCCC2)CCCC1,TGI,[2],91.9 µM
same,TGI,[3],39.2 µM
same,TGI,[4],28.4 µM
same,TGI,[5],29.6 µM
same,TGI,[6],39.3 µM
same,TGI,[7],45.5 µM
same,TGI,[8],> 100 µM
same,TGI,[9],62.5 µM
same,TGI,[10],33.7 µM
same,TGI,[12],27.6 µM
same,TGI,[13],30.4 µM
same,TGI,[14],30.6 µM
same,TGI,[15],58.1 µM
same,TGI,[16],47.8 µM
same,TGI,[17],24.7 µM
same,TGI,[18],29.2 µM
same,TGI,[19],30.9 µM
same,TGI,[20],30 µM
same,TGI,[22],> 100 µM
same,TGI,[23],33.3 µM
same,TGI,[24],31.5 µM
same,TGI,[25],40.1 µM
same,TGI,[26],33.8 µM
same,TGI,[27],47.8 µM
same,TGI,[28],19.6 µM
same,TGI,[29],32.5 µM
same,TGI,[30],37.9 µM
same,TGI,[31],29.8 µM
same,TGI,[32],29.8 µM
same,TGI,[33],40.6 µM
same,TGI,[34],30.7 µM
same,TGI,[35],57 µM
same,TGI,[36],30 µM
same,TGI,[37],32.5 µM
same,TGI,[38],33.1 µM
same,TGI,[39],92 µM
same,TGI,[40],25.1 µM
same,TGI,[41],99.8 µM
same,TGI,[43],31.3 µM
same,TGI,[44],37.6 µM
same,TGI,[45],38.5 µM
same,TGI,[46],40.7 µM
same,TGI,[48],34.3 µM
same,TGI,[49],75.4 µM
same,TGI,[50],38.7 µM
same,TGI,[51],35.1 µM
same,TGI,[52],39.6 µM
same,TGI,[53],43.9 µM
same,TGI,[54],31.9 µM
same,TGI,[55],30.5 µM
same,TGI,[56],32.9 µM
same,TGI,[58],25.4 µM
